PubChem BioAssay (NCI)
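These data come from cells grown in 96-well plates and exposed to compound for 48 hours at five concentrations. TGI is the concentration that stops growth completely.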

How the values were obtained:
Assay in all cases: DTP human tumour cell line panel, 48 h
[1] = test system: 786-0 renal
[2] = test system: A498 renal
[3] = test system: A549 NSCLC
[4] = test system: ACHN renal
[5] = test system: CAKI-1 renal
[6] = test system: CCRF-CEM leukemia
[7] = test system: COLO 205 colon
[8] = test system: DLD-1 colon
[9] = test system: DMS 114 small cell lung
[10] = test system: DMS 273 small cell lung
[11] = test system: EKVX NSCLC
[12] = test system: HCC-2998 colon
[13] = test system: HCT-116 colon
[14] = test system: HL-60(TB) leukemia
[15] = test system: HOP-18 NSCLC
[16] = test system: HOP-62 NSCLC
[17] = test system: HOP-92 NSCLC
[18] = test system: HT29 colon
[19] = test system: IGROV1 ovarian
[20] = test system: K-562 leukemia
[21] = test system: KM12 colon
[22] = test system: KM20L2 colon
[23] = test system: LOX IMVI melanoma
[24] = test system: LXFL 529 NSCLC
[25] = test system: M14 melanoma
[26] = test system: M19-MEL melanoma
[27] = test system: NCI-H226 lung
[28] = test system: NCI-H23 lung
[29] = test system: NCI-H460 lung
[30] = test system: NCI-H522 lung
[31] = test system: OVCAR-3 ovarian
[32] = test system: OVCAR-4 ovarian
[33] = test system: OVCAR-5 ovarian
[34] = test system: OVCAR-8 ovarian
[35] = test system: RPMI-8226 leukemia
[36] = test system: RXF 393 renal
[37] = test system: RXF-631 renal
[38] = test system: SF-268 CNS
[39] = test system: SF-295 CNS
[40] = test system: SF-539 CNS
[41] = test system: SK-MEL-28 melanoma
[42] = test system: SK-MEL-5 melanoma
[43] = test system: SK-OV-3 ovarian
[44] = test system: SN12C renal
[45] = test system: SNB-19 CNS
[46] = test system: SNB-75 CNS
[47] = test system: SNB-78 CNS
[48] = test system: SW-620 colon
[49] = test system: U251 CNS
[50] = test system: UACC-257 melanoma
[51] = test system: UACC-62 melanoma
[52] = test system: UO-31 renal
[53] = test system: XF 498 CNS
[54] = test system: HCT-15 colon
[55] = test system: MALME-3M melanoma
[56] = test system: SK-MEL-2 melanoma
[57] = test system: TK-10 renal

## c1ccc(P(=Nc2ccccc2N=P(c2ccccc2)(c2ccccc2)c2ccccc2)(c2ccccc2)c2ccccc2)cc1
[1]
  TGI: 11.3 µM
[2]
  TGI: 5.56 µM
[3]
  TGI: 12.6 µM
[4]
  TGI: 10.2 µM
[5]
  TGI: 3.72 µM
[6]
  TGI: 13 µM
[7]
  TGI: 3.04 µM
[8]
  TGI: 13 µM
[9]
  TGI: 2.68 µM
[10]
  TGI: 10 µM
[11]
  TGI: 15 µM
[12]
  TGI: 12.8 µM
[13]
  TGI: 9.64 µM
[14]
  TGI: 3.43 µM
[15]
  TGI: 0.844 µM
[16]
  TGI: 2.73 µM
[17]
  TGI: 0.573 µM
[18]
  TGI: 11.6 µM
[19]
  TGI: 22.8 µM
[20]
  TGI: 11.2 µM
[21]
  TGI: 12.8 µM
[22]
  TGI: 10.3 µM
[23]
  TGI: 13.9 µM
[24]
  TGI: 12.1 µM
[25]
  TGI: 15.7 µM
[26]
  TGI: 12.1 µM
[27]
  TGI: 1.38 µM
[28]
  TGI: 2.25 µM
[29]
  TGI: 11 µM
[30]
  TGI: 2.24 µM
[31]
  TGI: 0.783 µM
[32]
  TGI: 14.9 µM
[33]
  TGI: 7.53 µM
[34]
  TGI: 12.2 µM
[35]
  TGI: 12.6 µM
[36]
  TGI: 9 µM
[37]
  TGI: 6.64 µM
[38]
  TGI: > 100 µM
[39]
  TGI: 10.7 µM
[40]
  TGI: 10.4 µM
[41]
  TGI: > 100 µM
[42]
  TGI: 1.95 µM
[43]
  TGI: 3.52 µM
[44]
  TGI: 10.9 µM
[45]
  TGI: 16.9 µM
[46]
  TGI: 2.09 µM
[47]
  TGI: 19.9 µM
[48]
  TGI: 14.3 µM
[49]
  TGI: 11.6 µM
[50]
  TGI: 12.5 µM
[51]
  TGI: 11.7 µM
[52]
  TGI: 6.35 µM
[53]
  TGI: 0.543 µM

## CCCCCCCCCCCCCP(=O)(O)NCC(N)=O
[1]
  TGI: > 100 µM
[2]
  TGI: > 100 µM
[3]
  TGI: > 100 µM
[4]
  TGI: > 100 µM
[6]
  TGI: > 100 µM
[7]
  TGI: > 100 µM
[8]
  TGI: > 100 µM
[9]
  TGI: > 100 µM
[11]
  TGI: > 100 µM
[12]
  TGI: > 100 µM
[13]
  TGI: > 100 µM
[54]
  TGI: > 100 µM
[14]
  TGI: 67.3 µM
[15]
  TGI: 86.1 µM
[16]
  TGI: > 100 µM
[17]
  TGI: > 100 µM
[18]
  TGI: > 100 µM
[19]
  TGI: > 100 µM
[21]
  TGI: > 100 µM
[22]
  TGI: > 100 µM
[23]
  TGI: > 100 µM
[24]
  TGI: > 100 µM
[25]
  TGI: > 100 µM
[26]
  TGI: > 100 µM
[55]
  TGI: > 100 µM
[27]
  TGI: > 100 µM
[28]
  TGI: > 100 µM
[29]
  TGI: > 100 µM
[30]
  TGI: 86.2 µM
[31]
  TGI: > 100 µM
[32]
  TGI: > 100 µM
[33]
  TGI: > 100 µM
[34]
  TGI: > 100 µM
[35]
  TGI: > 100 µM
[36]
  TGI: > 100 µM
[37]
  TGI: > 100 µM
[38]
  TGI: > 100 µM
[39]
  TGI: > 100 µM
[40]
  TGI: > 100 µM
[56]
  TGI: > 100 µM
[41]
  TGI: > 100 µM
[42]
  TGI: > 100 µM
[43]
  TGI: > 100 µM
[44]
  TGI: > 100 µM
[45]
  TGI: > 100 µM
[46]
  TGI: > 100 µM
[48]
  TGI: > 100 µM
[57]
  TGI: > 100 µM
[49]
  TGI: > 100 µM
[50]
  TGI: > 100 µM
[51]
  TGI: > 100 µM
[52]
  TGI: 90.4 µM
[53]
  TGI: > 100 µM
